Experimental data taken from paper PMC10364322, “Evaluation of chronic drug-induced electrophysiological and cytotoxic effects using human-induced pluripotent stem cell-derived cardiomyocytes (hiPSC-CMs)” (Frontiers in Pharmacology, 2023).

Tests used:
[1] = tested on: hiPSC-CMs (iCell-Cardiomyocytes^2); test: MEA impedance (cytotoxicity readout) in hiPSC-CMs
[2] = cited from earlier work; for Free Cmax: free therapeutic Cmax in humans, ref FDA-approved drug packages, PharmaPendium

| Compound | Imp (impedance), % change from baseline ([1]; 0.3 µM, 2h) | Imp (impedance), % change from baseline ([1]; 0.3 µM, 24h) | Imp (impedance), % change from baseline ([1]; 0.3 µM, 48h) | Imp (impedance), % change from baseline ([1]; 0.3 µM, 72h) | Imp (impedance), % change from baseline ([1]; 0.3 µM, 96h) | Imp (impedance), % change from baseline ([1]; 1 µM, 2h) | Imp (impedance), % change from baseline ([1]; 1 µM, 24h) | Imp (impedance), % change from baseline ([1]; 1 µM, 48h) | Imp (impedance), % change from baseline ([1]; 1 µM, 72h) | Imp (impedance), % change from baseline ([1]; 1 µM, 96h) | Imp (impedance), % change from baseline ([1]; 3 µM, 72h) | Imp (impedance), % change from baseline ([1]; 3 µM, 96h) | Imp (impedance), % change from baseline ([1]; 3 µM, 2h) | Imp (impedance), % change from baseline ([1]; 3 µM, 24h) | Imp (impedance), % change from baseline ([1]; 3 µM, 48h) | Imp (impedance), % change from baseline ([1]; 10 µM, 2h) | Imp (impedance), % change from baseline ([1]; 10 µM, 24h) | Imp (impedance), % change from baseline ([1]; 10 µM, 48h) | Imp (impedance), % change from baseline ([1]; 10 µM, 72h) | Imp (impedance), % change from baseline ([1]; 10 µM, 96h) | further results |
| --- | --- | --- | --- | --- | --- | --- | --- | --- | --- | --- | --- | --- | --- | --- | --- | --- | --- | --- | --- | --- | --- |
| C#Cc1cccc(Nc2ncnc3cc(OCCOC)c(OCCOC)cc23)c1 [Erlotinib] | 0±3% | -5±3% | -5±4% | -5±6% | -3±6% | 1±2% | -6±3% | -2±5% | -3±5% | 1±9% | -2±4% | 0±6% | 1±3% | -6±2% | -1±5% | 5±4% | -17±2 % | -13±3% | -13±3% | -10±2% | effect on impedance ([1]; 10 µM (highest concentration)): borderline decrease in impedance, which was statistically and physiologically significant only at the 24 h time point; Free Cmax [2]: 3900 nM |
| N=C(N)c1ccc(OCCCCCOc2ccc(C(=N)N)cc2)cc1 [Pentamidine] | 6±2% | -3±4% | -4±4% | -8±5% | -5±3% | 5±2% | -4±3% | -6±4% | -13±3% | -18±5% | -28±8 % | -42±9 % | 5±2% | -4±2% | -7±6% | – | – | – | – | – | Imp (impedance), % change from baseline ([1]; 0.1 µM, 2h): 6±3%; Imp (impedance), % change from baseline ([1]; 0.1 µM, 24h): -2±5%; Imp (impedance), % change from baseline ([1]; 0.1 µM, 48h): -5±4%; Imp (impedance), % change from baseline ([1]; 0.1 µM, 72h): -6±3%; Imp (impedance), % change from baseline ([1]; 0.1 µM, 96h): 1±6%; Free Cmax [2]: 200 nM; exposures in patients (TdP cases after intravenous administration) ([2]; prolonged intravenous administration, ref Sands et al., 1985, Conte et al., 1986, Cordes et al., 2005): 1 to 5 µM |
| CC(C)(Sc1cc(C(C)(C)C)c(O)c(C(C)(C)C)c1)Sc1cc(C(C)(C)C)c(O)c(C(C)(C)C)c1 [Probucol] | 2±2% | -4±4% | -3±7 % | -4±6% | -3±10% | -1±2% | -6±4% | -3±3% | -8±3% | -2±5% | -10±2% | -7±2% | -2±3% | -7±4% | -5±4% | -3±1% | -7±4% | -4±4% | -12±3% | -8±4% | – |
| COc1nc(N)nc2c1ncn2[C@@H]1O[C@H](COP(=O)(N[C@@H](C)C(=O)OCC(C)(C)C)Oc2cccc3ccccc23)[C@@H](O)[C@@]1(C)O (stereo partly shown) [BMS-986094] | -4±2% | -3±2% | -6±3% | -8±3% | -18±6% | -1±2% | -1±4% | -5±3% | -16±2% | -29±4% | -19±6 % | -38±5 % | 3±5% | 1±2% | -5±3% | 2±1% | 4±4% | 2±10 % | -11±12% | -41±20 % | – |
| Cc1cn(-c2cc(NC(=O)c3ccc(C)c(Nc4nccc(-c5cccnc5)n4)c3)cc(C(F)(F)F)c2)cn1 [Nilotinib] | -1±3% | -11±5% | 3±7% | -2±4% | -1±5% | 4±7% | -8±6% | 13±17 % | 2±5 % | 4±14% | – | – | – | – | – | – | – | – | – | – | Imp (impedance), % change from baseline ([1]; 0.01 µM, 2h): -2±3%; Imp (impedance), % change from baseline ([1]; 0.01 µM, 24h): -14±3%; Imp (impedance), % change from baseline ([1]; 0.01 µM, 48h): -4±4%; Imp (impedance), % change from baseline ([1]; 0.01 µM, 72h): -4±15%; Imp (impedance), % change from baseline ([1]; 0.01 µM, 96h): -3±15%; Imp (impedance), % change from baseline ([1]; 0.1 µM, 2h): -2±3%; Imp (impedance), % change from baseline ([1]; 0.1 µM, 24h): -12±3%; Imp (impedance), % change from baseline ([1]; 0.1 µM, 48h): 4±10%; Imp (impedance), % change from baseline ([1]; 0.1 µM, 72h): -6±4%; Imp (impedance), % change from baseline ([1]; 0.1 µM, 96h): -1±5%; effect on impedance ([1]; all concentrations tested, up to 96 h): without relevant changes to impedance; Free Cmax [2]: 100 nM |
